The structures appear in SMILES notation. Where only a bound is given, the exact number is not on record here.

For 30 molecules, IC50 results are on record in US8741899B2, “(4-chloro-2-fluoro-N-(2-fluorophenyl)-5-[(8aR)-hexahydropyrrolo-[1,2-a]pyrazin-2(1H)-ylcarbonyl]-benzenesulfonamide, and pharmaceutically acceptable salts thereof” (AbbVie Inc., priority 2009, dated 2014).

The target of the test is T1, Human Cav3.2 Channels (Homo sapiens, UniProt O95180).
T1 construct: expressed in transfected cells
T1 sequence (O95180 whole entry): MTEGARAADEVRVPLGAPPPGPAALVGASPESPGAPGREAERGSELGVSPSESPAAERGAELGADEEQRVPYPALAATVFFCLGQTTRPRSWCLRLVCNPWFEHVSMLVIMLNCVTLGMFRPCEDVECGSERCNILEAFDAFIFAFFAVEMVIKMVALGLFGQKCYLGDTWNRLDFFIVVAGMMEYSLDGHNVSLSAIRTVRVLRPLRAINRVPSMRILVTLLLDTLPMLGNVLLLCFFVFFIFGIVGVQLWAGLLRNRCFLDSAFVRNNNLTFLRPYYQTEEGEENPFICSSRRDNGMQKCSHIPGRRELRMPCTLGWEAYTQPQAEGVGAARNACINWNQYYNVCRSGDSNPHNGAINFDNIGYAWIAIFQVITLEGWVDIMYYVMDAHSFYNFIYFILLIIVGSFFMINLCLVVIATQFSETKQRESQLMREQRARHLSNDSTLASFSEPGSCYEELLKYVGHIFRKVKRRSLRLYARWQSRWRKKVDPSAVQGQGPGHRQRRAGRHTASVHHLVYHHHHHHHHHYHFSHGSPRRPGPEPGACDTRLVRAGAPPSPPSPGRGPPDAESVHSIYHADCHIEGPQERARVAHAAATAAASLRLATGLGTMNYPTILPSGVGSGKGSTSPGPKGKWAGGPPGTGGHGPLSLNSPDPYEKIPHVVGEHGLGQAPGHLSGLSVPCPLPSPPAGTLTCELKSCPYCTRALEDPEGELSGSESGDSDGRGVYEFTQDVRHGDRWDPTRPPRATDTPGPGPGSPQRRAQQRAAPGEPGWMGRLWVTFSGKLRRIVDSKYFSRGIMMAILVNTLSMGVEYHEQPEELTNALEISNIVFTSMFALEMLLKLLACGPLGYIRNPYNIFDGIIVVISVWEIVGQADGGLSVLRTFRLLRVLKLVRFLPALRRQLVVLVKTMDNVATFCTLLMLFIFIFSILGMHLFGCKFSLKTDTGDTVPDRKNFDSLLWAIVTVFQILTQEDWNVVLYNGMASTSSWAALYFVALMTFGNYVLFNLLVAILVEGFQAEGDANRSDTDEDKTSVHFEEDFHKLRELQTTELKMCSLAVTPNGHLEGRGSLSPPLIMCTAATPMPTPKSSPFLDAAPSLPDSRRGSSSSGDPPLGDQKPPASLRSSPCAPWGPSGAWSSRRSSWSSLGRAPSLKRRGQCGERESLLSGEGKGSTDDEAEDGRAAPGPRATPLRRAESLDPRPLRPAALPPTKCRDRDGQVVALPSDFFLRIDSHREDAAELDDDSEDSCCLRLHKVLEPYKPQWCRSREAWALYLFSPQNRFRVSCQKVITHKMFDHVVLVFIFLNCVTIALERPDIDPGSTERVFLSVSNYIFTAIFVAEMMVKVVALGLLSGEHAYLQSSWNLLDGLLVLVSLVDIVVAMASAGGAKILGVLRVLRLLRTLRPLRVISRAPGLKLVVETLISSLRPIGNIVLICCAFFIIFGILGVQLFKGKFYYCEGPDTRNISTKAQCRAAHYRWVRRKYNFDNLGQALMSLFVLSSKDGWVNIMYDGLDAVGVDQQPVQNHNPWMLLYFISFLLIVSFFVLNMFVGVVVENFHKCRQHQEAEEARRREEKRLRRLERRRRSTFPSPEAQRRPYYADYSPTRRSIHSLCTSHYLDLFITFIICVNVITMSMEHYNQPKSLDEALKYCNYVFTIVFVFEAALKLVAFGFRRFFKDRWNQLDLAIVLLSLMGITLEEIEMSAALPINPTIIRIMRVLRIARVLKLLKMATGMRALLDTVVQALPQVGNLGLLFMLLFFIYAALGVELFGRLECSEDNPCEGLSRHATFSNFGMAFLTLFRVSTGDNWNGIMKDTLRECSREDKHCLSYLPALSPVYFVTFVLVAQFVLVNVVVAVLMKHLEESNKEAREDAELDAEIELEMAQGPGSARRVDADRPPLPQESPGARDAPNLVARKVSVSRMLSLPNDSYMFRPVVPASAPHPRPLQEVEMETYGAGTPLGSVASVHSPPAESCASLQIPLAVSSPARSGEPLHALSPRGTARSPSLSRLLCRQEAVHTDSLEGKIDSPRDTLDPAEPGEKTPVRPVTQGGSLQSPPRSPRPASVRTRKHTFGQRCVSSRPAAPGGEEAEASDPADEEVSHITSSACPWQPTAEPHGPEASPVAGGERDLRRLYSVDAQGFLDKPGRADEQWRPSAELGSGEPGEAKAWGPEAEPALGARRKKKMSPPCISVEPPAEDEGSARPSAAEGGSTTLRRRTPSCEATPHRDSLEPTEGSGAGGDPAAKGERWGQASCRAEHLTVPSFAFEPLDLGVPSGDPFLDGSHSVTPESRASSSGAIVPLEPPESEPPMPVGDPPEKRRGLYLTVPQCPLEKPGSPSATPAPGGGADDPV
The test is described as follows: Electrophysiologic (whole-cell patch-clamp) assessment of calcium channel activity in HEK293 cells stably expressing hCav3.2. It is filed as cell-based. The settings on record: −77 mV, geometric mean, read-out: Human Cav3.2 −77 mV IC50 (μM) GeoMean. On the procedure: (i) In Vitro Methods—Electrophysiologic Assessment of Calcium Channel Activity:
Patch-clamp recordings were performed using HEK293 cells stably expressing hCav3.2. Cells were plated in T175 flasks and grown at 37° C. and under 5% CO2 to approximately 50% confluency. On the day of the experiment, cells were harvested with Detachin™ cell detachment solution (Genlantis, San Diego, Calif.) and maintained in serum-free culture medium supplemented with 25 mM HEPES up to several hours prior to experiment. Whole-cell patch-clamp recordings were obtained using extracellular saline consisting of (mM): 87.5 CsCl, 40 TEA-Cl, 5 CaCl2, 1 MgCl2, 10 HEPES, 10 glucose. The pH was adjusted to 7.2 with CsOH and the osmolarity was adjusted to approximately 310 mOsm with sucrose. Intracellular solution consisted of (mM): 112 CsCl, 27 CsF, 2 NaCl, 8.2 EGTA, 10 HEPES. Prior to an experiment 4 mM Mg2ATP was added and the pH was adjusted to 7.2 with CsOH with an osmolarity of approximately 290 mOsm. A two-pulse voltage protocol was utilized to assess compound inhibition. First, cells were held with an 8 s pre-pulse at −100 mV prior to a 160 ms test pulse to −30 mV. This was followed by an 8 s pre-pulse at approximately −75 mV prior to a […]. Increasing concentrations of antagonist were applied to individual cells in a multi-addition format with 5 minutes in each test concentration. For each cell, responses were normalized to dimethyl sulfoxide vehicle control to generate concentration-response curves.
As to `O=C(c1cccc(S(=O)(=O)Nc2cc(F)ccc2F)c1)N1CCN2CCC[C@H]2C1` [Example 12, N-(2,5-difluorophenyl)-3-[(8aS)-hexahydropyrrolo[1,2-a]pyrazin-2(1H)-ylcarbonyl]benzenesulfonamide], the IC50 was 4.7 µM.

`O=C(c1cc(S(=O)(=O)N2CCN(c3ccc(F)cc3)CC2)c(F)cc1Cl)N1CCN2CCC[C@@H]2C1` [Example 67, (8aR)-2-(2-chloro-4-fluoro-5-{[4-(4-fluorophenyl)piperazin-1-yl]sulfonyl}benzoyl)octahydropyrrolo[1,2-a]pyrazine]: the IC50 was found to be 3.18 µM.

As for `O=C(c1cccc(S(=O)(=O)Nc2ccccc2F)c1)N1CCC(N2CCCC2)CC1` [Example 45, N-(2-fluorophenyl)-3-[(4-pyrrolidin-1-ylpiperidin-1-yl)carbonyl]benzenesulfonamide], the IC50 was over 10 µM.

Turning to `O=C(Nc1ccc(C(=O)N2CCN3CCC[C@@H]3C2)cc1Cl)C(c1ccccc1)c1ccccc1` [Example 75, N-{2-chloro-4-[(8aR)-hexahydropyrrolo[1,2-a]pyrazin-2(1H)-ylcarbonyl]phenyl}-2,2-diphenylacetamide], the half-inhibitory concentration (IC50) was 6.5 µM.

As to `O=C(NCCc1ccc(F)cc1)c1cccc(S(=O)(=O)N2CCN3CCC[C@H]3C2)c1` [Example 56, N-[2-(4-fluorophenyl)ethyl]-3-[(8aS)-hexahydropyrrolo[1,2-a]pyrazin-2(1H)-ylsulfonyl]benzamide], the IC50 came to 4.1 µM.

Consider `O=C(c1cccc(S(=O)(=O)Nc2cccc(C(F)(F)F)c2)c1)N1CCN2CCC[C@H]2C1` [Example 6, 3-[(8aS)-hexahydropyrrolo[1,2-a]pyrazin-2(1H)-ylcarbonyl]-N-[3-(trifluoromethyl)phenyl]benzenesulfonamide], for which the IC50 was determined as 1.9 µM.

With `O=C(c1cccc(S(=O)(=O)Nc2cc(F)ccc2F)c1)N1CCN2CCC[C@@H]2C1` [Example 15, N-(2,5-difluorophenyl)-3-[(8aR)-hexahydropyrrolo[1,2-a]pyrazin-2(1H)-ylcarbonyl]benzenesulfonamide], the half-inhibitory concentration (IC50) is over 10 µM.

For `O=C(c1cccc(S(=O)(=O)Nc2ccc(C(F)(F)F)cc2)c1)N1CCN2CCC[C@H]2C1` [Example 8, 3-[(8aS)-hexahydropyrrolo[1,2-a]pyrazin-2(1H)-ylcarbonyl]-N-[4-(trifluoromethyl)phenyl]benzenesulfonamide], the IC50 was 2.1 µM.

For `O=C(Nc1ccc(C(=O)N2CCN3CCC[C@@H]3C2)cc1Cl)c1ccc2ccccc2c1` [Example 76, N-{2-chloro-4-[(8aR)-hexahydropyrrolo[1,2-a]pyrazin-2(1H)-ylcarbonyl]phenyl}-2-naphthamide], the IC50 was 6.4 µM.

For the molecule `O=C(c1cccc(S(=O)(=O)Nc2ccc(F)cc2)c1)N1CCC(N2CCCCC2)CC1` [Example 46, 3-(1,4′-bipiperidin-1′-ylcarbonyl)-N-(4-fluorophenyl)benzenesulfonamide], the IC50 was determined as 1.8 µM.

As for `O=C(c1cccc(S(=O)(=O)Nc2ccccc2-c2ccccc2)c1)N1CCN2CCC[C@H]2C1` [Example 36, N-1,1′-biphenyl-2-yl-3-[(8aS)-hexahydropyrrolo[1,2-a]pyrazin-2(1H)-ylcarbonyl]benzenesulfonamide], the IC50 stood at 4.7 µM.

Turning to `O=C(c1cc(S(=O)(=O)Nc2ccc(C(F)(F)F)cc2)ccc1Cl)N1CCN2CCC[C@@H]2C1` [Example 32, 4-chloro-3-[(8aR)-hexahydropyrrolo[1,2-a]pyrazin-2(1H)-ylcarbonyl]-N-[4-(trifluoromethyl)phenyl]benzenesulfonamide], the half-inhibitory concentration (IC50) was found to be 8.4 µM.

As for `O=C(c1cccc(S(=O)(=O)Nc2cccc(Cl)c2)c1)N1CCN2CCC[C@H]2C1` [Example 21, N-(3-chlorophenyl)-3-[(8aS)-hexahydropyrrolo[1,2-a]pyrazin-2(1H)-ylcarbonyl]benzenesulfonamide], the half-inhibitory concentration (IC50) was 5.9 µM.

As to `O=C(c1ccc(S(=O)(=O)N[C@H](CO)c2ccccc2)cc1)N1CCN2CCC[C@@H]2C1` [Example 62, 4-[(8aR)-hexahydropyrrolo[1,2-a]pyrazin-2(1H)-ylcarbonyl]-N-[(1S)-2-hydroxy-1-phenylethyl]benzenesulfonamide], the IC50 is over 10 µM.

Consider `O=C(c1cccc(S(=O)(=O)N2CCN(C(c3ccccc3)c3ccccc3)CC2)c1)N1CCN2CCC[C@@H]2C1` [Example 24, (8aR)-2-{3-[(4-benzhydrylpiperazin-1-yl)sulfonyl]benzoyl}octahydropyrrolo[1,2-a]pyrazine], for which the IC50 turned out to be 1 µM.

Regarding `O=C(c1cc(S(=O)(=O)NC(c2ccccc2)c2ccccc2)c(F)cc1Cl)N1CCN2CCC[C@@H]2C1` [Example 74, N-benzhydryl-4-chloro-2-fluoro-5-[(8aR)-hexahydropyrrolo[1,2-a]pyrazin-2(1H)-ylcarbonyl]benzenesulfonamide], the IC50 came to 2 µM.

With `O=C(c1cc(S(=O)(=O)Nc2ccccc2F)c(F)cc1Cl)N1CCN2CCC[C@H]2C1` [Example 58, 4-chloro-2-fluoro-N-(2-fluorophenyl)-5-[(8aS)-hexahydropyrrolo[1,2-a]pyrazin-2(1H)-ylcarbonyl]benzenesulfonamide], the concentration for half-maximal inhibition (IC50) was determined as 4.6 µM.

On to `O=C(c1cc(S(=O)(=O)NCC(c2ccccc2)c2ccccc2)c(F)cc1Cl)N1CCN2CCC[C@@H]2C1` [Example 70, 4-chloro-N-(2,2-diphenylethyl)-2-fluoro-5-[(8aR)-hexahydropyrrolo[1,2-a]pyrazin-2(1H)-ylcarbonyl]benzenesulfonamide], for which the IC50 came out at 7.2 µM.

As for `O=C(NCC(c1ccccc1)c1ccccc1)c1cccc(S(=O)(=O)N2CCN3CCC[C@H]3C2)c1` [Example 53, N-(2,2-diphenylethyl)-3-[(8aS)-hexahydropyrrolo[1,2-a]pyrazin-2(1H)-ylsulfonyl]benzamide], the IC50 was found to be 0.5 µM.

In the case of `O=C(c1cccc(S(=O)(=O)N2CCN(C(c3ccccc3)c3ccccc3)CC2)c1)N1CCN2CCC[C@H]2C1` [Example 28, (8aS)-2-{3-[(4-benzhydrylpiperazin-1-yl)sulfonyl]benzoyl}octahydropyrrolo[1,2-a]pyrazine], the half-inhibitory concentration (IC50) amounted to 1.9 µM.

Consider `O=C(c1cccc(S(=O)(=O)Nc2cccc(C(F)(F)F)c2)c1)N1CCN2CCCCC2C1` (stereo not drawn) [Example 38, 3-(octahydro-2H-pyrido[1,2-a]pyrazin-2-ylcarbonyl)-N-[3-(trifluoromethyl)phenyl]benzenesulfonamide], for which the concentration for half-maximal inhibition (IC50) stood at 4.6 µM.

With `O=C(c1cccc(S(=O)(=O)N2CCN3CCC[C@@H]3C2)c1)N1CCN(C(c2ccccc2)c2ccccc2)CC1` [Example 52, (8aR)-2-({3-[(4-benzhydrylpiperazin-1-yl)carbonyl]phenyl}sulfonyl)octahydropyrrolo[1,2-a]pyrazine], the IC50 worked out at 0.6 µM.

Regarding `O=C(c1cccc(S(=O)(=O)Nc2ccccc2)c1)N1CCC(N2CCCC2)CC1` [Example 41, N-phenyl-3-[(4-pyrrolidin-1-ylpiperidin-1-yl)carbonyl]benzenesulfonamide], the 50% inhibitory concentration (IC50) was determined as 5 µM.

Consider `O=C(c1cccc(S(=O)(=O)NCC(c2ccccc2)c2ccccc2)c1)N1CCN2CCC[C@@H]2C1` [Example 26, N-(2,2-diphenylethyl)-3-[(8aR)-hexahydropyrrolo[1,2-a]pyrazin-2(1H)-ylcarbonyl]benzenesulfonamide], for which the 50% inhibitory concentration (IC50) came out at 1.5 µM.

As for `O=C(NC1CC1)c1cc(S(=O)(=O)N2CCN3CCC[C@H]3C2)c(F)cc1Cl` [Example 83, 2-chloro-N-cyclopropyl-4-fluoro-5-[(8aS)-hexahydropyrrolo[1,2-a]pyrazin-2(1H)-ylsulfonyl]benzamide], the 50% inhibitory concentration (IC50) is over 10 µM.

With `O=C(c1cccc(S(=O)(=O)Nc2ccccc2Cl)c1)N1CCN2CCC[C@H]2C1` [Example 10, N-(2-chlorophenyl)-3-[(8aS)-hexahydropyrrolo[1,2-a]pyrazin-2(1H)-ylcarbonyl]benzenesulfonamide], the IC50 is 1.5 µM.

`O=C(c1cccc(S(=O)(=O)Nc2ccccc2C(F)(F)F)c1)N1CCN2CCC[C@H]2C1` [Example 19, 3-[(8aS)-hexahydropyrrolo[1,2-a]pyrazin-2(1H)-ylcarbonyl]-N-[2-(trifluoromethyl)phenyl]benzenesulfonamide]: the half-inhibitory concentration (IC50) amounted to 2.4 µM.

Consider `O=C(Nc1cc(C(=O)N2CCN3CCC[C@@H]3C2)ccc1Cl)c1ccc(F)cc1` [Example 68, N-{2-chloro-5-[(8aR)-hexahydropyrrolo[1,2-a]pyrazin-2(1H)-ylcarbonyl]phenyl}-4-fluorobenzamide], for which the half-inhibitory concentration (IC50) was 10.9 µM.

As for `O=C(c1cccc(S(=O)(=O)Nc2ccc(F)cc2)c1)N1CCN2CCC[C@H]2C1` [Example 5, N-(4-fluorophenyl)-3-[(8aS)-hexahydropyrrolo[1,2-a]pyrazin-2(1H)-ylcarbonyl]benzenesulfonamide], the concentration for half-maximal inhibition (IC50) amounted to 1.8 µM.

For the molecule `O=C(Nc1cc(C(=O)N2CCN3CCC[C@@H]3C2)ccc1Cl)C(c1ccccc1)c1ccccc1` [Example 78, N-{2-chloro-5-[(8aR)-hexahydropyrrolo[1,2-a]pyrazin-2(1H)-ylcarbonyl]phenyl}-2,2-diphenylacetamide], the 50% inhibitory concentration (IC50) is over 10 µM.

As a reminder, the IC50 is the midpoint of a concentration-inhibition curve.
